Experimental data published in patent US5912405A, “Enhancers such as acetosyringone” (Novo Nordisk A/S, priority 1994, dated 1999).

What was measured:
Type in all cases: biochemical
[1] = molecular target: T1, Coprinus cinereus peroxidase (CiP) (Coprinopsis cinerea, UniProt P28314); assay: Initial bleaching of Direct Blue 1 with Coprinus cinereus peroxidase and enhancers; details: 5 μM enhancer, 20 μM H2O2, 30° C.
T1 construct: made in house
T1 sequence (P28314 21-363): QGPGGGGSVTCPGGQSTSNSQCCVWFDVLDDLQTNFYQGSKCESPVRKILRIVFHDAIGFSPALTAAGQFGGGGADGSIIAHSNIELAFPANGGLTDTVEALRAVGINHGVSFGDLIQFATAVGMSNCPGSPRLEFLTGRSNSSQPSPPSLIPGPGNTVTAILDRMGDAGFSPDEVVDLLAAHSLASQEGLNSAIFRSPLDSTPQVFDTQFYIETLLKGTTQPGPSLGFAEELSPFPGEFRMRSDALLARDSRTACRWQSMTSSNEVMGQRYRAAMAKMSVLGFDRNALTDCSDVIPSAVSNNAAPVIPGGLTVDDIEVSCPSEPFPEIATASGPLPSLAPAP
Experimental: A Coprinus cinereus peroxidase (CiP), obtained as described in WO 9412621 was used.
Dilutions of CiP were made in a solution of 0.15 gram/l of Triton X-405.
The bleaching rate of Direct Blue 1 (DB1) by purified CiP was determined using the following conditions: […]
Reagents were mixed in a thermostated cuvette at 30° C. and the bleaching was started by addition of hydrogen peroxide. The bleaching was detected spectrophotometrically at 610 nm, which is the wavelength of the absorption peak of DB1. Bleaching was followed for 1 minute, and the initial reduction in absorbance, --ΔmAbs/minute, was determined.

[2] = molecular target: T2, Coprinus cinereus laccase (Coprinopsis cinerea, UniProt Q9Y780); assay: Bleaching of Direct Blue 1 using Coprinus cinereus laccase with/without enhancing agents at pH 5.5-8.5; details: C. cinereus laccase 1 mg/l, 10 μM enhancing agent, 30° C.
T2 sequence (Q9Y780 19-539): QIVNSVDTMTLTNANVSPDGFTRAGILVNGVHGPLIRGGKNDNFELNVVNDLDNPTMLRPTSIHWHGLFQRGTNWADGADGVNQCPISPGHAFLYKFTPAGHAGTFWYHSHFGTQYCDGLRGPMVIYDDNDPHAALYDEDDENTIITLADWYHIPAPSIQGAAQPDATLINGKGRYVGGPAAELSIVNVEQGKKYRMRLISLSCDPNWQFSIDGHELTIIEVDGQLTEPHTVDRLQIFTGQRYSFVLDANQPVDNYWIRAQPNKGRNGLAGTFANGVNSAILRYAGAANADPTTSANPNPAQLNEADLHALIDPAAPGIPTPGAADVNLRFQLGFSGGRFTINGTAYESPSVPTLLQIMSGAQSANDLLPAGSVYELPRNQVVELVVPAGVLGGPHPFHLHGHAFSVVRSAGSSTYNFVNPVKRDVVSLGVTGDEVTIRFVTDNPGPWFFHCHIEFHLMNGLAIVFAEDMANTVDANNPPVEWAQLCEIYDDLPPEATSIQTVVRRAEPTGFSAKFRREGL
Experimental: Bleaching of the dye Direct Blue 1 at various pH values was conducted using Coprinus cinereus laccase and one of the following enhancing agents:
The laccase was obtained in the following way: Coprinus cinereus (IFO 30116--freely available to the public from Institute of Fermentation, Osaka (IFO) under the indicated deposit number) was inoculated from a PDA agar slant (PDA: 39 g/l potato dextrose agar) into a 100 ml shake flask containing medium A (Medium A is described in Example 3). The culture was cultivated for 6 days at 26° C. and 100 rpm. A 10-liter fermentor containing medium A was inoculated with the 100 ml culture broth. The fermentation ran for 6 days at 26° C. and 100 rpm. The culture broth was filtrated and concentrated by ultrafiltration. Further purification was carried out using hydrophobic interaction chromatography followed by anionic exchange chromatography. This process resultated in a preparation with a laccase activity of 3.6 LACU/ml. The estimated purity was >80% on a protein basis.
The bleaching rate of DB1 was determined using the owing conditions: […]
Reagents were mixed in a 1 ml thermostated cuvette at 30° C. and the bleaching was started by addition of the laccase.
The bleaching was followed spectrophotometrically at 610 nm, which is the wavelength of the absorption peak of DB1 with readings every 5 sec. for a period of 5 minutes. The initial bleaching rate was determined from the first linear part of the absorbance curve.

Trametes villosa laccase = molecular target: T3, Trametes villosa laccase (Trametes villosa, UniProt Q99044); assay: Bleaching of Direct Blue 1 with Trametes villosa laccase with and without enhancing agents; details: 10 μM enhancer, 30° C.
T3 construct: made in house; host or cells: Trametes villosa CBS 678.70 (native producer), purified from culture broth
T3 sequence (Q99044 22-520): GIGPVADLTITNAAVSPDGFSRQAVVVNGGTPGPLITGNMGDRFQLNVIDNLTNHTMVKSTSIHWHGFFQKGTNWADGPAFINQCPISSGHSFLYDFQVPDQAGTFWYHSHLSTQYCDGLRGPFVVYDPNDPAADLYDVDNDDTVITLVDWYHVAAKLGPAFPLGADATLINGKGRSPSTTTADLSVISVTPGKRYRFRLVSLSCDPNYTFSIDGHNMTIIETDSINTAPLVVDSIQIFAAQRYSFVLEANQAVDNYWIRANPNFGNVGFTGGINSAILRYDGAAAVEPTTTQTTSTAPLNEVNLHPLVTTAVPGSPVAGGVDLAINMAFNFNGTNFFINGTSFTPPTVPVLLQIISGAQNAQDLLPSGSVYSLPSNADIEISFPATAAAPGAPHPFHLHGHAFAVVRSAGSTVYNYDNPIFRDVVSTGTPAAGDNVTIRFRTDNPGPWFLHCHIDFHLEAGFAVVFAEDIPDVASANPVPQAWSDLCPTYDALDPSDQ
Experimental: Laccase obtained from Trametes villosa: 800 ml culture broth of Trametes villosa, CBS 678.70, was filtered with filter aid to give a clear filtrate, which was concentrated and washed by ultrafiltration on a membrane with a cut-off of 6-8 kDa. One ml samples of concentrated preparation was applied onto a Q-Sepharose HP column (Pharmacia, Sweden) equilibrated with 0.1 M fosfate pH 7, and the laccase was eluted with a flat NaCl gradient around 0.25 M. Fractions with laccase activity from 10 runs were pooled and concentrated by ultrafiltration to an activity of 500 LACU/ml.
The following conditions were used: […]
Reagents were mixed in a 1 cm thermostated cuvette at 30° C. and the bleaching was started by addition of enzyme.
The bleaching was detected spectrophotometrically at 610 nm, which is the absorption peak of DB1. After 5 sec. bleaching was followed for 4 minutes.
Bleaching of Direct Blue 1 with Trametes villosa laccase, obtained as described above, at pH 5.5 (1.6 mg/l) and pH 7.0 (16 mg/l): […]

[3] = molecular target: T2, Coprinus cinereus laccase; assay: Bleaching of gradually added Acid Blue 45 with Coprinus cinereus laccase with and without enhancing agent; details: phosphate/borate buffer pH 10; 35° C.; laccase 10 mg/l; acetosyringone 10 μM
Experimental: To simulate such a process, however, a magnetically stirred beaker was used as the reaction vessel and dye was added gradually from a stock solution (using a Metrohm 725 dosimat). The solution was monitored spectrophotometrically using a Zeiss multichannel spectrometer (MCS) equipped with a fibre-optics immersion probe.
Stock solutions of acetosyringone was prepared in a suitable water/ethanol mixture. Stock solutions of the anthraquinone dye Acid Blue 45 were made with water.
The laccase was recovered from a 10-liter fermentation of Coprinus cinereus (IFO 30116) as described in Example 4.
The following conditions were used in the experiment:
Medium and pH: […]/50 mM phosphate/borate buffer at pH 10
Acetosyringone (when applicable): 10 μM
Dye addition program: linear addition at a rate of ca 0.34 bs/40 min, referring to the absorbance of Acid Blue 45 at its maximum absorbance wavelength (590 nm for Acid Blue 45).
The following symbols are used: (I): Only dye addition; (II): Dye addition in the presence of Laccase; (III): Dye addition in the presence of Laccase+acetosyringone.

COc1cc(C(C)=O)cc(OC)c1O [acetosyringone]
Initial Bleaching of Direct Blue 1 with CiP ([1]; pH 8.5, 0.08 mg/l CiP): 239 -ΔmAbs/minute
Initial Bleaching of Direct Blue 1 with CiP ([1]; pH 10.5, 0.16 mg/l CiP): 1 -ΔmAbs/minute
Initial bleaching rate of DB1 ([2]; pH 5.5): 28 -ΔmAbs/minute
Initial bleaching rate of DB1 ([2]; pH 7.0): 94 -ΔmAbs/minute
Initial bleaching rate of DB1 ([2]; pH 8.5): 50 -ΔmAbs/minute
DB1 bleaching in 4 minutes (Trametes villosa laccase; pH 5.5, Trametes villosa laccase 1.6 mg/l): 447 -ΔmAbs/4 min
DB1 bleaching in 4 minutes (Trametes villosa laccase; pH 7.0, Trametes villosa laccase 16 mg/l): 242 -ΔmAbs/4 min
Bleaching effect on gradually added Acid Blue 45 (FIG. 1) [3]: enhanced
